Patent publication US20150202187A1, “COMPOSITIONS AND METHODS FOR TREATMENT OF VITILIGO” (priority 2012, published 2015)

Tests used:
human melanocytes = test: Melanogenesis in cultured primary human melanocytes; assay type: cell-based
Method: Rapamycin (also called sirolimus) inhibits immune attack by inhibiting the response to interleukin-2 (IL-2) and blocking activation of T- and B-cells. Rapamycin binds to the cytosolic protein FK-binding protein 12 (FKBP12) and inhibits the mammalian target of rapamycin (mTOR) pathway by directly binding the mTOR Complex 1 (mTORC1). […] For example, FIG. 1 depicts a western blot of lysates from HL60 cells, a model system for studying human myeloid cell differentiation, which were treated with rapamycin for 24 hours. […] Additionally, FIG. 2 depicts human melanocytes that were treated with rapamycin (0.01 μM) for 96 hours.
(§1) In FIG. 5, Primary Human melanocytes were treated with each agent or the combination for 96 h. […] FIG. 7 depicts a Western blot for protein expression of survival signals in primary human melanocytes treated with FGF, stem cell factor (SCF), forskolin and alpha-MSH, as compared to untreated melanocytes. […] Designation of 1 indicates the darkening (repigmentation) of skin surrounding hair follicles.

[1] = tested on: primary human melanocytes; test: Proliferation of primary human melanocytes; assay type: cell-based; conditions: 10 ng/mL, 96 h, DMSO as untreated control (FIG. 3)
Method: In some embodiments, the present invention is directed to a composition comprising a cosmeceutically acceptable carrier, rapamycin and growth factors such as fibroblast growth factor (FGF), Stem cell Factor (SCF) or Endothelins. […] In FIG. 3, treated Primary Human melanocytes were treated with bFGF (10 ng/mL) with DMSO as untreated control for 96 h. Growth Factors such as basic Fibroblast Growth Factor, Stem Cell Factor and Endothelins are important regulators of melanocyte differentiation, migration, proliferation and survival. Growth factors can therefore protect cells from destruction induced by immune cells. Furthermore, growth factors such as those described, can potentially increase migration of melanoblasts (melanocyte precursor cells) from peripheral regions of vitiligo patches or from hair follicles into the vitiligo lesion thus allowing repigmentation.
as §1

## N[C@@H](Cc1ccc(O)c(O)c1)C(=O)O [L-dopa, L-DOPA]
Human melanocytes; FIG. 6
  melanogenesis compared to untreated melanocytes: increased melanogenesis
Human melanocytes; each agent alone, 96 h (FIG. 4)
  melanogenesis in human melanocytes: melanogenesis increases

## N[C@@H](Cc1ccc(O)cc1)C(=O)O [L-Tyrosine]
Human melanocytes; 96 hours (FIG. 10)
  melanogenesis in cultured primary melanocytes: increased melanogenesis

## bFGF: recombinant human basic fibroblast growth factor (FGF2)
[1]
  proliferation of primary human melanocytes: increases proliferation
